Reference: ChEMBL document CHEMBL1151339, “Antitumor agents from bohemic acid complex, III. The isolation of marcellomycin, musettamycin, rudolphomycin, mimimycin, collinemycin, alcindoromycin, and bohemamine” (J Nat Prod, 1980)
Converted amounts (≈) assume the structure as drawn.

Experiments:
Mus musculus [1] = experiment: Toxicity in BDF1 mouse xenografted with mouse L1210 cells assessed as survival at 6.4 mg/kg, ip after 5 days; format: organism-based; parameters: dose 6.4 mg/kg, route intraperitoneal; details: in vivo, 120 h
B16 [2] = experiment: Antitumor activity against mouse B16 cells xenografted in BDF1 mouse assessed as median survival time at 3.2 mg/kg; format: functional
B16 [3] = experiment: Antitumor activity against mouse B16 cells xenografted in BDF1 mouse assessed as median survival time at 1.6 mg/kg; format: functional
Pseudomonas aeruginosa = experiment: Antibacterial activity against Pseudomonas aeruginosa A-9843A by 2-fold tube dilution method; format: functional
Enterococcus faecalis = experiment: Antibacterial activity against Streptococcus faecalis A20688 by 2-fold tube dilution method; format: functional
Staphylococcus = experiment: Antibacterial activity against penicillin resistant Staphylococcus A-9606 by 2-fold tube dilution method; format: functional
Streptococcus pneumoniae = experiment: Antibacterial activity against Streptococcus pneumoniae A-9585 by 2-fold tube dilution method; format: functional
Streptococcus pyogenes = experiment: Antibacterial activity against Streptococcus pyogenes A-9604 by 2-fold tube dilution method; format: functional
Staphylococcus aureus = experiment: Antibacterial activity against Staphylococcus aureus A-9497 by 2-fold tube dilution method; format: functional
Escherichia coli [4] = experiment: Antibacterial activity against Escherichia coli A15119 by 2-fold tube dilution method; format: functional
Escherichia coli [5] = experiment: Antibacterial activity against Escherichia coli A20341-1 by 2-fold tube dilution method; format: functional
Klebsiella pneumoniae = experiment: Antibacterial activity against Klebsiella pneumoniae A15130 by 2-fold tube dilution method; format: functional
Proteus mirabilis = experiment: Antibacterial activity against Proteus mirabilis A-9900 by 2-fold tube dilution method; format: functional
Proteus vulgaris = experiment: Antibacterial activity against Proteus vulgaris A21559 by 2-fold tube dilution method; format: functional
Enterobacter cloacae = experiment: Antibacterial activity against Enterobacter cloacae A-9659 by 2-fold tube dilution method; format: functional
Candida albicans [6] = experiment: Antifungal activity against Candida albicans A-9540 by 2-fold tube dilution method; format: functional
Candida albicans [7] = experiment: Antifungal activity against Candida albicans A15050 by 2-fold tube dilution method; format: functional
Candida tropicalis = experiment: Antifungal activity against Candida tropicalis A15051 by 2-fold tube dilution method; format: functional
L1210 [8] = experiment: Antitumor activity against mouse L1210 cells xenografted in BDF1 mouse assessed as median survival time at 3.2 mg/kg, ip; format: functional; details: route intraperitoneal
L1210 [9] = experiment: Antitumor activity against mouse L1210 cells xenografted in BDF1 mouse assessed as median survival time at 1.6 mg/kg, ip; format: functional; details: route intraperitoneal
L1210 [10] = experiment: Antitumor activity against mouse L1210 cells xenografted in BDF1 mouse assessed as median survival time at 0.8 mg/kg, ip; format: functional; details: route intraperitoneal
L1210 [11] = experiment: Antitumor activity against mouse L1210 cells xenografted in BDF1 mouse assessed as median survival time at 0.4 mg/kg, ip; format: functional; details: route intraperitoneal
L1210 [12] = experiment: Antitumor activity against mouse L1210 cells xenografted in BDF1 mouse at 1.6 mg/kg, ip relative to control; format: functional; details: route intraperitoneal
L1210 [13] = experiment: Antitumor activity against mouse L1210 cells xenografted in BDF1 mouse at 0.8 mg/kg, ip relative to control; format: functional; details: route intraperitoneal
L1210 [14] = experiment: Antitumor activity against mouse L1210 cells xenografted in BDF1 mouse at 0.4 mg/kg, ip relative to control; format: functional; details: route intraperitoneal
L1210 [15] = experiment: Antitumor activity against mouse L1210 cells xenografted in BDF1 mouse assessed as change in tumor average weight at 3.2 mg/kg, ip; format: functional; details: route intraperitoneal
L1210 [16] = experiment: Antitumor activity against mouse L1210 cells xenografted in BDF1 mouse assessed as change in tumor average weight at 1.6 mg/kg, ip; format: functional; details: route intraperitoneal
L1210 [17] = experiment: Antitumor activity against mouse L1210 cells xenografted in BDF1 mouse assessed as change in tumor average weight at 0.8 mg/kg, ip; format: functional; details: route intraperitoneal
Mus musculus [18] = experiment: Toxicity in BDF1 mouse xenografted with mouse L1210 cells assessed as survival at 12.8 mg/kg, ip after 5 days; format: organism-based; parameters: dose 12.8 mg/kg, route intraperitoneal; details: in vivo, 120 h
Mus musculus [19] = experiment: Toxicity in BDF1 mouse xenografted with mouse B16 cells assessed as survival at 0.1 mg/kg after 5 days; format: organism-based; parameters: dose 0.1 mg/kg
Mus musculus [20] = experiment: Toxicity in BDF1 mouse xenografted with mouse B16 cells assessed as survival at 0.025 mg/kg after 5 days; format: organism-based; parameters: dose 0.025 mg/kg
Mus musculus [21] = experiment: Toxicity in BDF1 mouse xenografted with mouse L1210 cells assessed as survival at 0.8 mg/kg, ip after 5 days; format: organism-based; parameters: dose 0.8 mg/kg, route intraperitoneal; details: in vivo, 120 h
Mus musculus [22] = experiment: Toxicity in BDF1 mouse xenografted with mouse L1210 cells assessed as survival at 0.4 mg/kg, ip after 5 days; format: organism-based; parameters: dose 0.4 mg/kg, route intraperitoneal; details: in vivo, 120 h
B16 [23] = experiment: Antitumor activity against mouse B16 cells xenografted in BDF1 mouse assessed as median survival time at 0.2 mg/kg; format: functional
B16 [24] = experiment: Antitumor activity against mouse B16 cells xenografted in BDF1 mouse assessed as median survival time at 0.1 mg/kg; format: functional
B16 [25] = experiment: Antitumor activity against mouse B16 cells xenografted in BDF1 mouse assessed as median survival time at 0.025 mg/kg; format: functional
B16 [26] = experiment: Antitumor activity against mouse B16 cells xenografted in BDF1 mouse at 3.2 mg/kg relative to control; format: functional
B16 [27] = experiment: Antitumor activity against mouse B16 cells xenografted in BDF1 mouse at 0.4 mg/kg relative to control; format: functional
B16 [28] = experiment: Antitumor activity against mouse B16 cells xenografted in BDF1 mouse at 0.1 mg/kg relative to control; format: functional
B16 [29] = experiment: Antitumor activity against mouse B16 cells xenografted in BDF1 mouse at 0.05 mg/kg relative to control; format: functional
B16 [30] = experiment: Antitumor activity against mouse B16 cells xenografted in BDF1 mouse at 0.025 mg/kg relative to control; format: functional
B16 [31] = experiment: Antitumor activity against mouse B16 cells xenografted in BDF1 mouse assessed as change in tumor average weight at 3.2 mg/kg; format: functional
B16 [32] = experiment: Antitumor activity against mouse B16 cells xenografted in BDF1 mouse assessed as change in tumor average weight at 0.4 mg/kg; format: functional
B16 [33] = experiment: Antitumor activity against mouse B16 cells xenografted in BDF1 mouse assessed as change in tumor average weight at 0.2 mg/kg; format: functional
B16 [34] = experiment: Antitumor activity against mouse B16 cells xenografted in BDF1 mouse assessed as change in tumor average weight at 0.1 mg/kg; format: functional
B16 [35] = experiment: Antitumor activity against mouse B16 cells xenografted in BDF1 mouse assessed as change in tumor average weight at 0.05 mg/kg; format: functional
B16 [36] = experiment: Antitumor activity against mouse B16 cells xenografted in BDF1 mouse assessed as change in tumor average weight at 0.025 mg/kg; format: functional
Mus musculus [37] = experiment: Toxicity in BDF1 mouse xenografted with mouse B16 cells assessed as survival at 1.6 mg/kg after 5 days; format: organism-based; parameters: dose 1.6 mg/kg
Mus musculus [38] = experiment: Toxicity in BDF1 mouse xenografted with mouse B16 cells assessed as survival at 0.8 mg/kg after 5 days; format: organism-based; parameters: dose 0.8 mg/kg
Mus musculus [39] = experiment: Toxicity in BDF1 mouse xenografted with mouse B16 cells assessed as survival at 0.4 mg/kg after 5 days; format: organism-based; parameters: dose 0.4 mg/kg
Mus musculus [40] = experiment: Toxicity in BDF1 mouse xenografted with mouse B16 cells assessed as survival at 0.2 mg/kg after 5 days; format: organism-based; parameters: dose 0.2 mg/kg

`CC[C@@]1(O)C[C@H](O[C@H]2C[C@H](N(C)C)[C@H](O[C@H]3C[C@H](O)[C@H](O[C@@H]4O[C@@H](C)C(=O)C=C4N)[C@@H](C)O3)[C@@H](C)O2)c2c(cc3c(c2O)C(=O)c2c(O)ccc(O)c2C3=O)[C@H]1C(=O)OC` [RUDOLPHOMYCIN] was tested, and the Activity (Mus musculus [1]) was “Toxic”, the Activity (B16 [2]) was 23 days and the Activity (B16 [3]) was 32 days. For the same compound, the MIC (Pseudomonas aeruginosa) was over 125 µg/mL, the MIC (Enterococcus faecalis) was 1 µg/mL (≈ 1.19 µM) and the MIC (Staphylococcus) was 32 µg/mL (≈ 38.1 µM). The MIC (Streptococcus pneumoniae) was 0.06 µg/mL (≈ 0.0714 µM), the MIC (Streptococcus pyogenes) was 0.25 µg/mL (≈ 0.297 µM) and the MIC (Staphylococcus aureus) was 1 µg/mL (≈ 1.19 µM). It also gave an MIC (Escherichia coli [4]) of over 125 µg/mL, an MIC (Escherichia coli [5]) of over 125 µg/mL and an MIC (Klebsiella pneumoniae) of over 125 µg/mL. The MIC (Proteus mirabilis) was over 125 µg/mL, the MIC (Proteus vulgaris) was over 125 µg/mL and the MIC (Enterobacter cloacae) was over 125 µg/mL. For the same compound, the MIC (Candida albicans [6]) was over 16 µg/mL, the MIC (Candida albicans [7]) was over 16 µg/mL and the MIC (Candida tropicalis) was over 16 µg/mL. For the same compound, the Activity (L1210 [8]) was 8 days, the Activity (L1210 [9]) was 10 days and the Activity (L1210 [10]) was 9 days. It also gave an Activity (L1210 [11]) of 8 days, a T/C (L1210 [12]) of 133% and a T/C (L1210 [13]) of 120%. It also gave a T/C (L1210 [14]) of 107%, an Activity (L1210 [15]) of -2.2 g and an Activity (L1210 [16]) of -1.2 g. The Activity (L1210 [17]) was -1.6 g, the Activity (Mus musculus [18]) was “Toxic” and the AC50 (Mus musculus [19]) was “Non-toxic”. The AC50 (Mus musculus [20]) was “Non-toxic”, the Activity (Mus musculus [21]) was “Non-toxic” and the Activity (Mus musculus [22]) was “Non-toxic”. For the same compound, the Activity (B16 [23]) was 26 days, the Activity (B16 [24]) was 27.5 days and the Activity (B16 [25]) was 22.5 days. It also gave a T/C (B16 [26]) of 115%, a T/C (B16 [27]) of 133% and a T/C (B16 [28]) of 138%. It also gave a T/C (B16 [29]) of 110%, a T/C (B16 [30]) of 113% and an Activity (B16 [31]) of -0.3 g. It also gave an Activity (B16 [32]) of -0.8 g, an Activity (B16 [33]) of -1 g and an Activity (B16 [34]) of -0.4 g. The Activity (B16 [35]) was -0.8 g, the Activity (B16 [36]) was -0.9 g and the AC50 (Mus musculus [37]) was “Non-toxic”. For the same compound, the AC50 (Mus musculus [38]) was “Non-toxic”, the AC50 (Mus musculus [39]) was “Non-toxic” and the AC50 (Mus musculus [40]) was “Non-toxic”.
